Assay results: ChEMBL document CHEMBL1129611, “Vesamicol receptor mapping of brain cholinergic neurons with radioiodine-labeled positional isomers of benzovesamicol” (J Med Chem, 1996)

Key:
[1] = Tissue distribution of [125I]- labelled compound in mice atria in 0.5 hr; assay type: functional
[2] = Tissue distribution of [125I]- labelled compound in mice atria in 24 hours; assay type: functional
[3] = Tissue distribution of [125I]- labelled compound in mice atria in 4 hours; assay type: functional
[4] = Tissue distribution of [125I]- labelled compound in mice blood in 0.5 hours; assay type: functional, tissue-based
[5] = Tissue distribution of [125I]- labelled compound in mice blood in 24 hours; assay type: functional, tissue-based
[6] = species on record: Mus musculus; experiment: (§1) Tissue distribution of [125I]- labelled compound in mice blood in 4 hours; assay type: ADME, organism-based; settings: in vivo
[7] = as §1; assay type: functional, tissue-based
[8] = Tissue distribution of [125I]- labelled compound in mice cerebellum in 0.5 hr; assay type: functional, tissue-based
[9] = Tissue distribution of [125I]- labelled compound in mice ventricles in 0.5 hr; assay type: functional
[10] = Tissue distribution of [125I]- labelled compound in mice ventricles in 4 hours; assay type: functional
[11] = Tissue distribution of [125I]- labelled compound in mice […] in 24 hours; assay type: functional
[12] = Tissue distribution of [125I]- labelled compound in mice […] in 4 hours; assay type: functional
[13] = Tissue distribution of [125I]- labelled compound in mice liver in 0.5 hr; assay type: functional, tissue-based
[14] = Tissue distribution of [125I]- labelled compound in mice liver in 24 hours; assay type: functional, tissue-based
[15] = Tissue distribution of [125I]- labelled compound in mice liver in 4 hours; assay type: functional, tissue-based
[16] = Tissue distribution of [125I]- labelled compound in mice lung in 0.5 hr; assay type: functional, tissue-based
[17] = Tissue distribution of [125I]- labelled compound in mice lung in 24 hours; assay type: functional, tissue-based
[18] = Tissue distribution of [125I]- labelled compound in mice lung in 4 hours; assay type: functional, tissue-based
[19] = Tissue distribution of [125I]- labelled compound in mice striatum in 0.5 hours; assay type: functional, tissue-based
[20] = Tissue distribution of [125I]- labelled compound in mice striatum in 24 hours; assay type: functional, tissue-based
[21] = Tissue distribution of [125I]- labelled compound in mice striatum in 4 hours; assay type: functional, tissue-based
[22] = Tissue distribution of [125I]- labelled compound in mice ventricle in 24 hours; assay type: functional
[23] = Tissue distribution of [125I]- labelled compound in mice cerebellum in 24 hours; assay type: functional, tissue-based
[24] = Tissue distribution of [125I]- labelled compound in mice cerebellum in 4 hours; assay type: functional, tissue-based
[25] = Tissue distribution of [125I]- labelled compound in mice cortex in 0.5 hours; assay type: functional, tissue-based
[26] = Tissue distribution of [125I]- labelled compound in mice cortex in 24 hours; assay type: functional, tissue-based
[27] = Tissue distribution of [125I]- labelled compound in mice cortex in 4 hours; assay type: functional, tissue-based
[28] = Tissue distribution of [125I]- labelled compound in mice hippocampus in 0.5 hours; assay type: functional, tissue-based
[29] = Tissue distribution of [125I]- labelled compound in mice hippocampus in 24 hours; assay type: functional, tissue-based
[30] = Tissue distribution of [125I]- labelled compound in mice hippocampus in 4 hours; assay type: functional, tissue-based
[31] = Tissue distribution of [125I]- labelled compound in mice […] in 0.5 hours; assay type: functional
[32] = Tissue distribution of [125I]- labelled compound in mice latria in 0.5 hr; assay type: functional

| Structure (SMILES) | Dose/g [3] | Dose/g [4] | Dose/g [7] | Dose/g [8] | Dose/g [9] | Dose/g [10] | Dose/g [12] | Dose/g [13] | Dose/g [15] | Dose/g [16] | Dose/g [18] | Dose/g [19] | Dose/g [21] | Dose/g [24] | Dose/g [25] | Dose/g [27] | Dose/g [28] | Dose/g [30] | Dose/g [31] | Dose/g [32] | also measured |
| --- | --- | --- | --- | --- | --- | --- | --- | --- | --- | --- | --- | --- | --- | --- | --- | --- | --- | --- | --- | --- | --- |
| O[C@@H]1Cc2cc(I)ccc2C[C@H]1N1CCC(c2ccccc2)CC1 | 2.45% | 1.13% | 0.47% | 2.06% | 3.29% | 1.77% | 1.42% | 19.3% | 12.7% | 13.1% | 5.86% | 2.34% | 1.96% | 1.23% | 2.32% | 1.62% | 1.99% | 1.27% | 2.16% |  | Dose/g [1]: 4.37%; Dose/g [2]: 0.77%; Dose/g [5]: 0.09%; Dose/g [6]: 0.47%; Dose/g [11]: 1.35%; Dose/g [14]: 6.48%; Dose/g [17]: 1.74%; Dose/g [20]: 2.32%; Dose/g [22]: 0.27%; Dose/g [23]: 1.06%; Dose/g [26]: 1.74%; Dose/g [29]: 1.48% |
| O[C@@H]1Cc2ccc(I)cc2C[C@H]1N1CCC(c2ccccc2)CC1 | 0.97% | 1.06% | 0.51% | 2.05% | 1.34% | 0.53% | 0.68% | 18% | 6.33% | 3.39% | 0.89% | 3.9% | 3.07% | 0.29% | 2.99% | 1.28% | 2.73% | 1.03% | 2.51% | 2.09% | Dose/g [2]: 0.1%; Dose/g [5]: 0.05%; Dose/g [11]: 0.1%; Dose/g [14]: 0.88%; Dose/g [17]: 0.1%; Dose/g [20]: 0.76%; Dose/g [22]: 0.1%; Dose/g [23]: 0.05%; Dose/g [26]: 0.22%; Dose/g [29]: 0.16% |
| O[C@@H]1Cc2c(I)cccc2C[C@H]1N1CCC(c2ccccc2)CC1 | 0.34% | 1% | 0.19% | 1.22% | 1.25% | 0.23% |  |  |  |  |  | 1.64% | 0.12% | 0.08% | 1.53% | 0.1% |  |  |  | 1.64% |  |
| O[C@@H]1Cc2ccccc2C[C@H]1N1CCC(c2ccc(I)cc2)CC1 | 1.35% | 1.85% | 0.66% | 2.33% | 2.9% | 1.88% | 0.28% | 15.4% | 9.12% | 8.86% | 2.95% | 2.68% | 0.33% | 0.28% | 3.01% | 0.32% | 2.91% | 0.31% | 2.73% | 3.03% |  |
| O[C@@H]1Cc2cccc(I)c2C[C@H]1N1CCC(c2ccccc2)CC1 | 1.43% | 0.82% | 0.53% | 1.28% | 1.27% | 0.31% | 0.61% | 11% | 5.92% | 7.57% | 1.11% | 3.81% | 3.3% | 0.21% | 2.29% | 1.17% | 2.09% | 1.06% | 1.69% | 1.73% | Dose/g [2]: 0.82%; Dose/g [5]: 0.04%; Dose/g [11]: 0.42%; Dose/g [14]: 0.89%; Dose/g [17]: 0.09%; Dose/g [20]: 2.2%; Dose/g [22]: 0.06%; Dose/g [23]: 0.05%; Dose/g [26]: 0.88%; Dose/g [29]: 0.71% |
